In ChEMBL document CHEMBL1201862, “PubChem BioAssay data set” (2004):
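Dose response: 5 concentrations. Exposure: 48 h. Format: 96-well plates. Endpoint: linear interpolation; highest concentration if not reached. GI50 is the concentration that inhibits growth by half.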 Active and inactive are the calls of the source. No stated cut-off is given here; in the data, active = GI50 up to about 1.1 µM and inactive = higher.

Key:
Test in all cases: NCI tumour cell line growth inhibition, 48 h
CAKI-1 = test system: CAKI-1
SF-295 = test system: SF-295
OVCAR-4 = test system: OVCAR-4
ACHN = test system: ACHN
SF-268 = test system: SF-268
NCI-H460 = test system: NCI-H460
UO-31 = test system: UO-31
HT-29 = test system: HT-29
SNB-75 = test system: SNB-75
SK-MEL-5 = test system: SK-MEL-5
NCI-H226 = test system: NCI-H226
M14 = test system: M14
SNB-19 = test system: SNB-19
OVCAR-5 = test system: OVCAR-5
LOX IMVI = test system: LOX IMVI
HCC 2998 = test system: HCC 2998
HCT-116 = test system: HCT-116
SW-620 = test system: SW-620

Measured: GI50

CCOC(OC1=C(C#N)CCCC1)C(CC)[Se]c1ccccc1 (stereo not given)
inactive: CAKI-1 53.1 µM | SF-295 27.6 µM | OVCAR-4 19.3 µM | ACHN 30.1 µM | SF-268 12.1 µM | NCI-H460 17.8 µM | UO-31 37.8 µM | HT-29 29 µM | SNB-75 29.3 µM | SK-MEL-5 16.4 µM | NCI-H226 19.4 µM | M14 26.3 µM | SNB-19 39.9 µM | OVCAR-5 32.4 µM | LOX IMVI 9.25 µM | HCC 2998 35.2 µM | HCT-116 14.5 µM

Cc1ccc(S(=O)(=O)c2c(N)c3nc4ccccc4n3c3nc4ccccc4nc23)cc1
inactive: CAKI-1 > 100 µM | SF-295 > 100 µM | OVCAR-4 38.7 µM | SW-620 > 100 µM | ACHN > 100 µM | SF-268 > 100 µM | NCI-H460 > 100 µM | UO-31 71.4 µM | HT-29 > 100 µM | SNB-75 > 100 µM | SK-MEL-5 > 100 µM | NCI-H226 > 100 µM | M14 > 100 µM | SNB-19 > 100 µM | OVCAR-5 > 100 µM | LOX IMVI > 100 µM | HCC 2998 > 100 µM | HCT-116 > 100 µM

Nc1nc2c(N)cc(C(F)(F)F)cc2nc1-c1ccccc1
inactive: CAKI-1 > 100 µM | SF-295 > 100 µM | OVCAR-4 > 100 µM | SW-620 > 100 µM | ACHN > 100 µM | SF-268 > 100 µM | NCI-H460 > 100 µM | UO-31 > 100 µM | SNB-75 27.2 µM | SK-MEL-5 > 100 µM | NCI-H226 > 100 µM | M14 > 100 µM | SNB-19 > 100 µM | OVCAR-5 > 100 µM | LOX IMVI > 100 µM | HCC 2998 > 100 µM | HCT-116 > 100 µM

COC(CN1C=C(Sc2ccccc2)CC1)OC
inactive: CAKI-1 41.4 µM | SF-295 19.5 µM | OVCAR-4 34 µM | SW-620 21.9 µM | ACHN 34.6 µM | SF-268 29.7 µM | NCI-H460 31.7 µM | UO-31 29.9 µM | HT-29 24.8 µM | SNB-75 19 µM | SK-MEL-5 18.9 µM | NCI-H226 33.3 µM | M14 33.7 µM | SNB-19 37.8 µM | OVCAR-5 49.2 µM | LOX IMVI 24.8 µM | HCC 2998 33.9 µM | HCT-116 29.5 µM

CCc1cccc(C(C)C)c1NC(=O)C(=O)C1C(=O)NC(=O)NC1=O
inactive: CAKI-1 > 100 µM | SF-295 > 100 µM | OVCAR-4 > 100 µM | SW-620 > 100 µM | ACHN > 100 µM | SF-268 > 100 µM | NCI-H460 > 100 µM | UO-31 > 100 µM | HT-29 > 100 µM | SNB-75 69.5 µM | SK-MEL-5 > 100 µM | NCI-H226 > 100 µM | M14 > 100 µM | SNB-19 > 100 µM | OVCAR-5 > 100 µM | LOX IMVI > 100 µM | HCC 2998 > 100 µM | HCT-116 > 100 µM

CCOC(OC1=C(C#N)CCC1)C(C)[Se]c1ccccc1 (stereo not given)
inactive: CAKI-1 59.7 µM | SF-295 22.2 µM | OVCAR-4 14.9 µM | ACHN 32.1 µM | SF-268 19.8 µM | NCI-H460 36.4 µM | UO-31 26.5 µM | HT-29 42.2 µM | SNB-75 22.3 µM | SK-MEL-5 15.8 µM | NCI-H226 19.7 µM | M14 16.1 µM | SNB-19 48.1 µM | OVCAR-5 39.8 µM | LOX IMVI 10 µM | HCC 2998 46.7 µM | HCT-116 18.8 µM

CC1CC(=O)C(C(O)CC2CC(=O)N(c3ccccc3)C(=O)C2)C(C)C1 (stereo not given)
inactive: CAKI-1 > 100 µM | SF-295 > 100 µM | OVCAR-4 > 100 µM | SW-620 > 100 µM | ACHN > 100 µM | SF-268 > 100 µM | NCI-H460 > 100 µM | UO-31 > 100 µM | HT-29 > 100 µM | SNB-75 > 100 µM | NCI-H226 > 100 µM | M14 > 100 µM | SNB-19 > 100 µM | OVCAR-5 > 100 µM | LOX IMVI > 100 µM | HCC 2998 > 100 µM | HCT-116 > 100 µM

O=C(CSc1nc(-c2ccccc2)c(-c2ccccc2)[nH]1)NNC(=S)Nc1ccccc1
inactive: CAKI-1 81.7 µM | SF-295 49.9 µM | OVCAR-4 64 µM | SW-620 > 100 µM | ACHN 85.1 µM | SF-268 > 100 µM | NCI-H460 > 100 µM | UO-31 71.9 µM | HT-29 69.2 µM | SNB-75 > 100 µM | SK-MEL-5 46.1 µM | NCI-H226 > 100 µM | M14 94.6 µM | SNB-19 > 100 µM | OVCAR-5 > 100 µM | LOX IMVI 71 µM | HCC 2998 > 100 µM | HCT-116 97.1 µM
